# In PMC5218480 (PLoS ONE, 2017):
# Test system: MV-4-11 cells
# Experiment: Gene expression microarray analysis (Affymetrix PrimeView) and GSEA
# Type: cell-based, human
# Parameters: RFU PODN (11730768_x_at) / Fold change /veh PODN (11730768_x_at) / RFU LINC00158 (11744669_a_at) / Fold change /veh LINC00158 (11744669_a_at) / RFU DUSP10 (11751237_a_at) / Fold change /veh DUSP10 (11751237_a_at) / RFU ID3 (11757404_x_at) / Fold change /veh ID3 (11757404_x_at) / RFU PLEKHG5 (11737974_s_at) / Fold change /veh PLEKHG5 (11737974_s_at) / RFU LRRC4B (11730491_at) / Fold change /veh LRRC4B (11730491_at) / RFU GIMAP4 (11747438_a_at) / Fold change /veh GIMAP4 (11747438_a_at) / RFU KRT8 (11758183_x_at) / Fold change /veh KRT8 (11758183_x_at) / RFU CNN1 (11734310_a_at) / Fold change /veh CNN1 (11734310_a_at) / RFU VPS37D (11726825_at) / Fold change /veh VPS37D (11726825_at) / RFU C10orf10 (11716522_x_at) / Fold change /veh C10orf10 (11716522_x_at) / RFU KIR2DL2 /// KIR2DL4 /// KIR2DL5A /// KIR2DL5B /// KIR2DS1 /// KIR2DS2 /// KIR2DS3 /// KIR2DS4 /// KIR3DL3 /// KIR3DL3 /// KIR3DS1 (11738374_at) / Fold change /veh KIR2DL2 /// KIR2DL4 /// KIR2DL5A /// KIR2DL5B /// KIR2DS1 /// KIR2DS2 /// KIR2DS3 /// KIR2DS4 /// KIR3DL3 /// KIR3DL3 /// KIR3DS1 (11738374_at) / RFU C1QL1 (11718748_at) / Fold change /veh C1QL1 (11718748_at) / RFU TMPRSS4 (11747572_a_at) / Fold change /veh TMPRSS4 (11747572_a_at) / RFU HAMP (11756126_x_at) / Fold change /veh HAMP (11756126_x_at) / RFU RNFT2 (11725882_a_at) / Fold change /veh RNFT2 (11725882_a_at) / RFU NR4A2 (11747474_a_at) / Fold change /veh NR4A2 (11747474_a_at) / RFU ABCC12 (11746883_a_at) / Fold change /veh ABCC12 (11746883_a_at) / RFU TMEM136 (11760407_x_at) / Fold change /veh TMEM136 (11760407_x_at) / RFU CLDN22 /// WWC2 (11732394_at) / Fold change /veh CLDN22 /// WWC2 (11732394_at) / RFU HLA-DPB1 (11760878_x_at) / Fold change /veh HLA-DPB1 (11760878_x_at) / RFU SPINT1 (11716480_a_at) / Fold change /veh SPINT1 (11716480_a_at) / RFU GAP43 (11754022_s_at) / Fold change /veh GAP43 (11754022_s_at) / RFU A4GNT (11735810_at) / Fold change /veh A4GNT (11735810_at) / RFU PRB3 (11715151_x_at) / Fold change /veh PRB3 (11715151_x_at) / RFU TUBB4B (11761932_at) / Fold change /veh TUBB4B (11761932_at) / RFU CAPN14 (11732068_a_at) / Fold change /veh CAPN14 (11732068_a_at) / RFU TMCC2 (11721928_a_at) / Fold change /veh TMCC2 (11721928_a_at) / RFU IRGQ (11745062_a_at) / Fold change /veh IRGQ (11745062_a_at) / RFU FAM174B (11720279_a_at) / Fold change /veh FAM174B (11720279_a_at) / RFU TMPRSS4 (11748680_a_at) / Fold change /veh TMPRSS4 (11748680_a_at) / RFU FAM212B (11763350_a_at) / Fold change /veh FAM212B (11763350_a_at) / RFU PLEKHG5 (11743358_a_at) / Fold change /veh PLEKHG5 (11743358_a_at) / RFU ZSCAN30 (11745921_a_at) / Fold change /veh ZSCAN30 (11745921_a_at) / RFU CMKLR1 (11741424_a_at) / Fold change /veh CMKLR1 (11741424_a_at) / RFU LOC101060620 /// MAPK8IP1 (11723275_at) / Fold change /veh LOC101060620 /// MAPK8IP1 (11723275_at) / RFU SPTSSB (11747773_x_at) / Fold change /veh SPTSSB (11747773_x_at) / RFU PRSS12 (11739890_at) / Fold change /veh PRSS12 (11739890_at) / RFU BIN1 (11741810_x_at) / Fold change /veh BIN1 (11741810_x_at) / RFU WNT11 (11732464_a_at) / Fold change /veh WNT11 (11732464_a_at) / RFU C10orf10 (11716521_a_at) / Fold change /veh C10orf10 (11716521_a_at) / RFU C5orf56 (11738089_at) / Fold change /veh C5orf56 (11738089_at) / RFU CYB561 (11721691_x_at) / Fold change /veh CYB561 (11721691_x_at) / RFU ANKRD19P (11752326_a_at) / Fold change /veh ANKRD19P (11752326_a_at) / RFU OR2T12 /// OR2T33 /// OR2T8 (11738714_s_at) / Fold change /veh OR2T12 /// OR2T33 /// OR2T8 (11738714_s_at) / RFU VCAN (11748164_a_at) / Fold change /veh VCAN (11748164_a_at) / RFU JSRP1 (11732532_at) / Fold change /veh JSRP1 (11732532_at) / RFU KRTAP10-11 (11738290_x_at) / Fold change /veh KRTAP10-11 (11738290_x_at) / RFU MYO3A (11730013_a_at) / Fold change /veh MYO3A (11730013_a_at) / RFU EBF3 (11725865_a_at) / Fold change /veh EBF3 (11725865_a_at) / RFU CAMK2N1 (11719241_x_at) / Fold change /veh CAMK2N1 (11719241_x_at) / RFU C5orf56 (11738088_a_at) / Fold change /veh C5orf56 (11738088_a_at) / RFU OLFML3 (11715873_a_at) / Fold change /veh OLFML3 (11715873_a_at) / RFU LOC100653217 /// NTM (11731650_a_at) / Fold change /veh LOC100653217 /// NTM (11731650_a_at) / RFU MAPK11 (11762145_a_at) / Fold change /veh MAPK11 (11762145_a_at) / RFU FIZ1 (11724087_x_at) / Fold change /veh FIZ1 (11724087_x_at) / RFU OASL (11726364_x_at) / Fold change /veh OASL (11726364_x_at) / RFU SOX15 (11748057_x_at) / Fold change /veh SOX15 (11748057_x_at) / RFU CD79A (11719716_a_at) / Fold change /veh CD79A (11719716_a_at) / RFU HIST1H1D (11736915_at) / Fold change /veh HIST1H1D (11736915_at) / RFU CASKIN2 (11723855_a_at) / Fold change /veh CASKIN2 (11723855_a_at) / RFU LOC730098 (11760151_x_at) / Fold change /veh LOC730098 (11760151_x_at) / RFU OR4N2 (11742367_at) / Fold change /veh OR4N2 (11742367_at) / RFU PRRT2 (11749266_a_at) / Fold change /veh PRRT2 (11749266_a_at) / RFU SNX32 (11753110_a_at) / Fold change /veh SNX32 (11753110_a_at) / RFU CDHR5 (11726645_a_at) / Fold change /veh CDHR5 (11726645_a_at) / RFU RCAN1 (11760418_a_at) / Fold change /veh RCAN1 (11760418_a_at) / RFU FAM167A (11723789_a_at) / Fold change /veh FAM167A (11723789_a_at) / RFU FAM26E (11764081_at) / Fold change /veh FAM26E (11764081_at) / RFU ISYNA1 (11749810_s_at) / Fold change /veh ISYNA1 (11749810_s_at) / RFU ACY1 (11761880_at) / Fold change /veh ACY1 (11761880_at) / RFU 11764098_at / Fold change /veh 11764098_at / RFU SAMD14 (11745864_x_at) / Fold change /veh SAMD14 (11745864_x_at) / RFU NPB (11741838_a_at) / Fold change /veh NPB (11741838_a_at) / RFU TMPRSS6 (11731388_a_at) / Fold change /veh TMPRSS6 (11731388_a_at) / RFU KRTAP10-2 (11738614_at) / Fold change /veh KRTAP10-2 (11738614_at) / RFU ARHGAP8 /// PRR5-ARHGAP8 (11727945_x_at) / Fold change /veh ARHGAP8 /// PRR5-ARHGAP8 (11727945_x_at) / RFU KRTAP5-7 /// NADSYN1 (11734609_at) / Fold change /veh KRTAP5-7 /// NADSYN1 (11734609_at) / RFU RASL12 (11751679_a_at) / Fold change /veh RASL12 (11751679_a_at) / RFU CDKN2B (11736163_a_at) / Fold change /veh CDKN2B (11736163_a_at) / RFU PRF1 (11729649_at) / Fold change /veh PRF1 (11729649_at) / RFU, ZNF638 /// ZNF638-IT1 / Fold change vs veh, ZNF638 /// ZNF638-IT1 / RFU, PANK3 / Fold change vs veh, PANK3 / RFU, SH3YL1 / Fold change vs veh, SH3YL1 / RFU, ZEB2 / Fold change vs veh, ZEB2 / RFU, NRIP1 / Fold change vs veh, NRIP1 / RFU, PTTG1IP / Fold change vs veh, PTTG1IP / RFU, CAPN2 / Fold change vs veh, CAPN2 / RFU, MED14 / Fold change vs veh, MED14 / RFU, SNORA58 / Fold change vs veh, SNORA58 / RFU, C1orf63 / Fold change vs veh, C1orf63 / RFU, LRRFIP1 / Fold change vs veh, LRRFIP1 / RFU, NDUFAF7 / Fold change vs veh, NDUFAF7 / RFU, SLC12A2 / Fold change vs veh, SLC12A2 / RFU, IBTK / Fold change vs veh, IBTK / RFU, ESF1 / Fold change vs veh, ESF1 / Fold change vs veh, TMEM50B / RFU, TAOK1 / Fold change vs veh, TAOK1 / RFU, ACBD3 / Fold change vs veh, ACBD3 / RFU, TMA16 / Fold change vs veh, TMA16 / RFU, RWDD3 / Fold change vs veh, RWDD3 / RFU, BCAT1 / Fold change vs veh, BCAT1 / RFU, EDEM3 / Fold change vs veh, EDEM3 / RFU, TMEM33 / Fold change vs veh, TMEM33 / RFU, WDR75 / Fold change vs veh, WDR75 / RFU, AHCTF1 / Fold change vs veh, AHCTF1 / RFU, TFRC / Fold change vs veh, TFRC / RFU, ZDHHC17 / Fold change vs veh, ZDHHC17 / RFU, NOM1 / Fold change vs veh, NOM1 / RFU, ARL8B / Fold change vs veh, ARL8B / RFU, ZBTB11 / Fold change vs veh, ZBTB11 / RFU, TAMM41 / Fold change vs veh, TAMM41 / RFU, KIAA1704 /// LOC100996395 / Fold change vs veh, KIAA1704 /// LOC100996395 / RFU, ING1 / Fold change vs veh, ING1 / RFU, TRMT61B / Fold change vs veh, TRMT61B / RFU, FUBP3 / Fold change vs veh, FUBP3 / RFU, TP53 / Fold change vs veh, TP53 / RFU, TNKS2 / Fold change vs veh, TNKS2 / RFU, ZFP14 / Fold change vs veh, ZFP14 / RFU, ACTR2 / Fold change vs veh, ACTR2 / RFU, PPP3R1 / Fold change vs veh, PPP3R1 / RFU, PIK3R1 / Fold change vs veh, PIK3R1 / RFU, HNRNPA1 / Fold change vs veh, HNRNPA1 / RFU, RNF170 / Fold change vs veh, RNF170 / RFU, ZNF28 / Fold change vs veh, ZNF28 / RFU, RNGTT / Fold change vs veh, RNGTT / RFU, OGT / Fold change vs veh, OGT / RFU, BRD1 / Fold change vs veh, BRD1 / RFU, MARS / Fold change vs veh, MARS / RFU, ZNF655 / Fold change vs veh, ZNF655 / RFU, FAHD1 / Fold change vs veh, FAHD1 / RFU, BDP1 / Fold change vs veh, BDP1 / RFU, LRRCC1 / Fold change vs veh, LRRCC1 / RFU, ARID1A / Fold change vs veh, ARID1A / RFU, ZNF146 / Fold change vs veh, ZNF146 / RFU, ZNF330 / Fold change vs veh, ZNF330 / RFU, GPN3 / Fold change vs veh, GPN3 / RFU, C9orf123 / Fold change vs veh, C9orf123 / RFU, N4BP2L2 / Fold change vs veh, N4BP2L2 / RFU, ARFIP1 / Fold change vs veh, ARFIP1 / RFU, FAM179B / Fold change vs veh, FAM179B / RFU, BCL10 / Fold change vs veh, BCL10 / RFU, UHRF1BP1L / Fold change vs veh, UHRF1BP1L / RFU, BET1 / Fold change vs veh, BET1 / RFU, CNOT2 / Fold change vs veh, CNOT2 / RFU, ZNF268 / Fold change vs veh, ZNF268 / Fold change vs veh, ZNF507 / RFU, DGCR2 / Fold change vs veh, DGCR2 / RFU, WDSUB1 / Fold change vs veh, WDSUB1 / Fold change vs veh, HSP90B1 /// MIR3652 / RFU, ADSS / Fold change vs veh, ADSS / RFU, GK / Fold change vs veh, GK / RFU, ZNF148 / Fold change vs veh, ZNF148 / RFU, TAF9 / Fold change vs veh, TAF9 / RFU, SLC1A5 / Fold change vs veh, SLC1A5 / RFU, SLMO2 / Fold change vs veh, SLMO2 / RFU, ABCC4 / Fold change vs veh, ABCC4 / RFU, LOC101060439 /// RAP1B / Fold change vs veh, LOC101060439 /// RAP1B / RFU, RFX7 / Fold change vs veh, RFX7 / RFU, GTPBP10 / Fold change vs veh, GTPBP10 / RFU, CNEP1R1 / Fold change vs veh, CNEP1R1 / RFU, BIVM-ERCC5 /// ERCC5 / Fold change vs veh, BIVM-ERCC5 /// ERCC5 / RFU, ILF3 / Fold change vs veh, ILF3 / RFU 11762660_at / Fold change /veh 11762660_at / RFU VCAN (11757783_s_at) / Fold change /veh VCAN (11757783_s_at) / RFU DDX43 (11728927_at) / Fold change /veh DDX43 (11728927_at) / RFU KRT8 (11758188_x_at) / Fold change /veh KRT8 (11758188_x_at) / RFU NKD1 (11759106_at) / Fold change /veh NKD1 (11759106_at) / RFU SRD5A1 (11742802_a_at) / Fold change /veh SRD5A1 (11742802_a_at) / RFU TPSAB1 /// TPSB2 (11721975_s_at) / Fold change /veh TPSAB1 /// TPSB2 (11721975_s_at) / RFU GSTM3 (11746129_a_at) / Fold change /veh GSTM3 (11746129_a_at) / RFU IL23R (11737362_x_at) / Fold change /veh IL23R (11737362_x_at) / RFU TMEM51 (11727254_a_at) / Fold change /veh TMEM51 (11727254_a_at) / RFU PIWIL2 (11732686_x_at) / Fold change /veh PIWIL2 (11732686_x_at) / RFU ORM1 (11744905_x_at) / Fold change /veh ORM1 (11744905_x_at) / RFU CCDC152 (11743942_at) / Fold change /veh CCDC152 (11743942_at) / RFU ECM1 (11717891_a_at) / Fold change /veh ECM1 (11717891_a_at) / RFU IL23R (11748794_a_at) / Fold change /veh IL23R (11748794_a_at) / RFU TNFAIP8L3 (11732012_x_at) / Fold change /veh TNFAIP8L3 (11732012_x_at) / RFU MBOAT4 (11741988_at) / Fold change /veh MBOAT4 (11741988_at) / RFU 11764193_at / Fold change /veh 11764193_at / RFU TMEM53 (11763286_at) / Fold change /veh TMEM53 (11763286_at) / RFU MAGEB2 (11727129_at) / Fold change /veh MAGEB2 (11727129_at) / RFU TMEM200A (11744735_a_at) / Fold change /veh TMEM200A (11744735_a_at) / RFU CCDC152 (11751479_a_at) / Fold change /veh CCDC152 (11751479_a_at) / RFU FAM211A (11726209_a_at) / Fold change /veh FAM211A (11726209_a_at) / RFU RGS16 (11746705_a_at) / Fold change /veh RGS16 (11746705_a_at) / RFU VCAN (11755009_s_at) / Fold change /veh VCAN (11755009_s_at) / RFU RHOB (11743442_s_at) / Fold change /veh RHOB (11743442_s_at) / RFU RGS16 (11720943_a_at) / Fold change /veh RGS16 (11720943_a_at) / RFU RGS16 (11720944_at) / Fold change /veh RGS16 (11720944_at) / RFU, VPS4B / Fold change vs veh, VPS4B / RFU, CREB1 / Fold change vs veh, CREB1 / RFU, DNAJC13 / Fold change vs veh, DNAJC13 / RFU, GNAQ / Fold change vs veh, GNAQ / RFU, CDK5R1 / Fold change vs veh, CDK5R1 / RFU, ZRANB3 / Fold change vs veh, ZRANB3 / RFU, CUL4A / Fold change vs veh, CUL4A / RFU, CCNY / Fold change vs veh, CCNY / RFU, UFL1 / Fold change vs veh, UFL1 / RFU, COG3 / Fold change vs veh, COG3 / RFU, DIAPH2 / Fold change vs veh, DIAPH2 / RFU, SKA2 / Fold change vs veh, SKA2 / RFU, AFF3 / Fold change vs veh, AFF3 / RFU, LMF1 / Fold change vs veh, LMF1 / RFU, IPO11 / Fold change vs veh, IPO11 / RFU, DFFB / Fold change vs veh, DFFB / RFU, FOXP1 / Fold change vs veh, FOXP1 / RFU, CARD8 / Fold change vs veh, CARD8 / RFU, STRN3 / Fold change vs veh, STRN3 / RFU, ADK / Fold change vs veh, ADK / RFU, RASSF2 / Fold change vs veh, RASSF2 / RFU, WIPF1 / Fold change vs veh, WIPF1 / RFU, LARP1B / Fold change vs veh, LARP1B / RFU, RASA1 / Fold change vs veh, RASA1 / RFU, RB1 / Fold change vs veh, RB1 / RFU, PPFIA1 / Fold change vs veh, PPFIA1 / RFU, MAT2A / Fold change vs veh, MAT2A / RFU, CCT5 / Fold change vs veh, CCT5 / RFU, WDR92 / Fold change vs veh, WDR92 / RFU, CUX1 / Fold change vs veh, CUX1 / RFU, TTC7A / Fold change vs veh, TTC7A / RFU, TMEM135 / Fold change vs veh, TMEM135 / RFU, DEPTOR / Fold change vs veh, DEPTOR / RFU, CPM / Fold change vs veh, CPM / RFU, DNAJB6 / Fold change vs veh, DNAJB6 / RFU, CACNA2D3 / Fold change vs veh, CACNA2D3 / RFU, DTX4 / Fold change vs veh, DTX4 / RFU, TFCP2 / Fold change vs veh, TFCP2 / RFU, GMCL1 /// GMCL1P1 / Fold change vs veh, GMCL1 /// GMCL1P1 / RFU, AEBP2 / Fold change vs veh, AEBP2 / RFU, SNHG1 /// SNORD22 /// SNORD25 /// SNORD26 /// SNORD27 /// SNORD28 /// SNORD29 /// SNORD31 / Fold change vs veh, SNHG1 /// SNORD22 /// SNORD25 /// SNORD26 /// SNORD27 /// SNORD28 /// SNORD29 /// SNORD31 / Fold change (Aza/veh), C12orf56 (ProbeSet 11735607_a_at) / Fold change (ACY-1035/veh), C12orf56 (ProbeSet 11735607_a_at) / Fold change (Aza/veh), FGFR1OP (ProbeSet 11751329_s_at) / Fold change (ACY-1035/veh), FGFR1OP (ProbeSet 11751329_s_at) / Fold change (Aza/veh), VPS36 (ProbeSet 11739960_a_at) / Fold change (ACY-1035/veh), VPS36 (ProbeSet 11739960_a_at) / RFU SYPL1 (11715823_x_at) / Fold change /veh SYPL1 (11715823_x_at) / RFU IGFBP7 (11715501_s_at) / Fold change /veh IGFBP7 (11715501_s_at) / RFU REEP3 (11722064_at) / Fold change /veh REEP3 (11722064_at) / RFU IGLL1 (11728026_x_at) / Fold change /veh IGLL1 (11728026_x_at): dose or concentration left out as unconfirmed
# Conditions: ProbeSet 11723475_a_at; LIST B
smiles,measurement,value
Nc1ccc(-c2cccs2)cc1NC(=O)c1ccc2c(c1)cc(C1CC1)n2CCN1CCOCC1 [ACY-1035],"RFU, TRMT61B",136.33 RFU
